In US9493483B2, “Benzo [C] isoxazoloazepine bromodomain inhibitors and uses thereof” (Constellation Pharmaceuticals, Inc., priority 2012, dated 2016):
Where two headings read alike, the source gives them in different places.

Key:
[1] = tested on: IL-6 secretion in LPS-stimulated THP-1 cells; assay: Cell-based IL-6 quantification assay (ELISA, Mesoscale); details: LPS 4 μg/mL, 16 h, read-out: IL-6 Cellular EC50
Procedure: Cell-Based IL-6 Quantification Assay (ELISA, Mesoscale Assay):
100,000 THP-1 cells were seeded in RPMI1640-10% FBS in 96-well plates. LPS (E. Coli Invitrogen) in RPMI-10% FBS at a final concentration of 4 μg/mL was added to the wells and the cells are then incubated in the presence of various concentrations of compounds for 16 h. Plates are spun ([…], 5 min), an aliquot of 25 uL supernatant is transferred in to an ELISA plate (Mesoscale technology, MSD) and the detection of IL-6 is performed using manufacturer's instructions. The amount of cells in each well is assessed using CellTiter-Glo® (Promega). The ratio of ELISA value/CellTiter-Glo value is used to calculate the percent of inhibition of IL-6 secretion.

BRD4(BD1) = BRD4(BD1) (Homo sapiens (Human), UniProt O60885); assay: BRD4 AlphaLisa binding assay; details: BRD4(BD1) 30 nM, H4-tetraacetyl peptide 200 nM; read-out: AlphaScreen IC50
Procedure: IC50 Measurements for Inhibitors Using BRD4 AlphaLisa Binding Assay
His/Flag epitope tagged BRD4 BD142-168 was cloned, expressed and purified to homogeneity. BRD4 binding and inhibition was assessed by monitoring the engagement of biotinylated H4-tetraacetyl peptide (Millipore #12-379) with the target using the AlphaLisa technology (Perkin-Elmer). Specifically, in a 384 well ProxiPlate BRD4(BD1) (30 nM final) was combined with peptide (200 nM final) in 40 mM HEPES (pH 7.0), 40 mM NaCl, 1 mM DTT, 0.01% (w/v) BSA, and 0.008% (w/v) Brij-35 either in the presence of DMSO (final 1.2% DMSO) or compound dilution series in DMSO. After 20 minute incubation at room temperature Alpha streptavidin donor beads and AlphaLisa anti-Flag acceptor beads were added to a final concentration of 10 ug/mL each. After three hours equilibration plates were read on an Envision instrument and IC50s calculated using a four parameter non-linear curve fit.

[2] = tested on: MYC mRNA in MV4:11 (AML) or Raji (Burkitt's lymphoma) cells; assay: cMyc RNA quantification assay (QuantiGene); format: cell-based; details: MV4:11 or Raji cells, 4 h; read-out: MYC Cellular EC50
Procedure: cMyc RNA Quantification Assay (QuantiGene® Assay):
MV4:11 (AML) or Raji (Burkitt's lymphoma) cells were seeded in a 96-well plate and incubated in the presence of various concentrations of compounds for 4 h. Relative mRNA levels were quantitated by using QuantiGene 2.0 assay (Affymetrix) according to the manufacturer's recommendation. Signals were detected by using an Envision plate reader (Perkin-Elmer). Biological duplicates were averaged and normalized to vehicle (DMSO) control to calculate percent MYC mRNA levels.

[3] = tested on: MV4-11 lymphoblast cell subcutaneous xenograft; assay: Tumor growth inhibition in MV4-11 subcutaneous xenograft mouse model; format: in vivo; details: female nude mice, all cohorts: 1.5-3 mg/kg SC BID/QD, 3-10 mg/kg PO QD (Table 3)
Procedure: This study investigated the effects of Compound 401 on tumor growth inhibition in an MV4-11 lymphoblast cell subcutaneous xenograft mouse model.
A total number of 120 female nude mice were purchased. These mice were allowed 3 days of acclimatization period before experiments started. The cell suspension was carried to the animal room in an ice box. Mice were implanted subcutaneously (s.c.) with 200 μL of 10×10^6 MV4-11 cells in 50% Matrigel in the right flank at the beginning of the study. All the mice were observed everyday to monitor the health and tumor size.
When tumors reached an average volume of 150-200 mm^3, 100 out of the 120 mice were selected based on their tumor volume and randomly assigned to 10 groups prior to dosing. Each group consisted of 10 tumor-bearing mice (n=10/group).
Tumor-bearing mice were treated with Compound 401 or vehicle, by subcutaneous injection (5 mL/kg) or oral dose (10 mL/kg) starting on the day after randomization for 29 days according to Table 3.
Mice were weighed at each dosing and recorded every day. Mice were observed closely for any overt signs of adverse, treatment-related side effects, which if any were recorded. […] Tumor size was measured three times a week in two dimensions using a caliper, and the tumor volume (V) was expressed in mm^3 using the formula: V=0.5 a×b^2 where a and b were the long and short diameters of the tumor, respectively. […]

DLD-1 = assay: In vitro cancer cell line growth inhibition (GI50); format: cell-based; details: Homo sapiens; DLD-1, Colorectal, 72 hours, resazurin
Procedure: (§1) Method for GI50 Determination
(§2) Adherent cells were plated in 96-well plates and the following day compound titrations were added to the cells. Suspensions cells were plated directly in 96-well plates containing compound titrations. Compound titrations were comprised of 9 two-fold dilutions. Cells were incubated for 72 hours before analysis of viability with resazurin. Viability relative to DMSO treated cells was plotted to determine the absolute GI50 values.

U2932 = assay: In vitro cancer cell line growth inhibition (GI50); format: cell-based; details: Homo sapiens; U2932, DLBCL, 72 hours, resazurin
Procedure: as §1, §2

HT = assay: In vitro cancer cell line growth inhibition (GI50); format: cell-based; details: Homo sapiens, DLBCL, 72 hours, resazurin
Procedure: as §1, §2

SU-DHL-8 = assay: In vitro cancer cell line growth inhibition (GI50); format: cell-based; details: Homo sapiens; SU-DHL-8, DLBCL, 72 hours, resazurin
Procedure: as §1, §2

OPM2 = assay: In vitro cancer cell line growth inhibition (GI50); format: cell-based; details: Homo sapiens, OPM-2; OPM2, Multiple myeloma, 72 hours, resazurin
Procedure: as §1, §2

143B = assay: In vitro cancer cell line growth inhibition (GI50); format: cell-based; details: Homo sapiens, Osteosarcoma, 72 hours, resazurin
Procedure: as §1, §2

HT29 = assay: In vitro cancer cell line growth inhibition (GI50); format: cell-based; details: Homo sapiens, HT-29; HT29, Colorectal, 72 hours, resazurin
Procedure: as §1, §2

SU-DHL-5 = assay: In vitro cancer cell line growth inhibition (GI50); format: cell-based; details: Homo sapiens; SU-DHL-5, DLBCL, 72 hours, resazurin
Procedure: as §1, §2

WSU-DLCL-2 = assay: In vitro cancer cell line growth inhibition (GI50); format: cell-based; details: Homo sapiens, WSUDLCL2; WSU-DLCL-2, DLBCL, 72 hours, resazurin
Procedure: as §1, §2

H526 = assay: In vitro cancer cell line growth inhibition (GI50); format: cell-based; details: Homo sapiens, NCI-H526; H526, Lung, 72 hours, resazurin
Procedure: as §1, §2

OCI-LY-19 = assay: In vitro cancer cell line growth inhibition (GI50); format: cell-based; details: Homo sapiens, OCI-LY19; OCI-LY-19, DLBCL, 72 hours, resazurin
Procedure: as §1, §2

THP-1 = assay: In vitro cancer cell line growth inhibition (GI50); format: cell-based; details: Homo sapiens; THP-1, AML, 72 hours, resazurin
Procedure: as §1, §2

KMS11 = assay: In vitro cancer cell line growth inhibition (GI50); format: cell-based; details: Homo sapiens, KMS-11; KMS11, Multiple myeloma, 72 hours, resazurin
Procedure: as §1, §2

ML-2 = assay: In vitro cancer cell line growth inhibition (GI50); format: cell-based; details: Homo sapiens; ML-2, AML, 72 hours, resazurin
Procedure: as §1, §2

A549 = assay: In vitro cancer cell line growth inhibition (GI50); format: cell-based; details: Homo sapiens; A549, Lung, 72 hours, resazurin
Procedure: as §1, §2

DB = assay: In vitro cancer cell line growth inhibition (GI50); format: cell-based; details: Homo sapiens, DLBCL, 72 hours, resazurin
Procedure: as §1, §2

SU-DHL-10 = assay: In vitro cancer cell line growth inhibition (GI50); format: cell-based; details: Homo sapiens, SU-DHL10; SU-DHL-10, DLBCL, 72 hours, resazurin
Procedure: as §1, §2

MOLM-13 = assay: In vitro cancer cell line growth inhibition (GI50); format: cell-based; details: Homo sapiens; MOLM-13, AML, 72 hours, resazurin
Procedure: as §1, §2

ZR-75-1 = assay: In vitro cancer cell line growth inhibition (GI50); format: cell-based; details: Homo sapiens; ZR-75-1, Breast, 72 hours, resazurin
Procedure: as §1, §2

MV4-11 = assay: In vitro cancer cell line growth inhibition (GI50); format: cell-based; details: Homo sapiens; MV4-11, AML, 72 hours, resazurin
Procedure: as §1, §2

H23 = assay: In vitro cancer cell line growth inhibition (GI50); format: cell-based; details: Homo sapiens, NCI-H23; H23, Lung, 72 hours, resazurin
Procedure: as §1, §2

LP1 = assay: In vitro cancer cell line growth inhibition (GI50); format: cell-based; details: Homo sapiens, LP-1; LP1, Multiple myeloma, 72 hours, resazurin
Procedure: as §1, §2

DOHH2 = assay: In vitro cancer cell line growth inhibition (GI50); format: cell-based; details: Homo sapiens, DOHH-2; DOHH2, DLBCL, 72 hours, resazurin
Procedure: as §1, §2

KARPAS 422 = assay: In vitro cancer cell line growth inhibition (GI50); format: cell-based; details: Homo sapiens; KARPAS 422, DLBCL, 72 hours, resazurin
Procedure: as §1, §2

SU-DHL-6 = assay: In vitro cancer cell line growth inhibition (GI50); format: cell-based; details: Homo sapiens; SU-DHL-6, DLBCL, 72 hours, resazurin
Procedure: as §1, §2

SU-DHL-4 = assay: In vitro cancer cell line growth inhibition (GI50); format: cell-based; details: Homo sapiens; SU-DHL-4, DLBCL, 72 hours, resazurin
Procedure: as §1, §2

A2780 = assay: In vitro cancer cell line growth inhibition (GI50); format: cell-based; details: Homo sapiens; A2780, Ovarian, 72 hours, resazurin
Procedure: as §1, §2

Compound: Cc1ccc(-c2ccc3c(c2)C(c2ccc(Cl)cc2)=N[C@@H](CC(N)=O)c2onc(C)c2-3)cn1 [Compound 403]
- EC50 ([1]; Homo sapiens): 29 nM
- IC50 (BRD4(BD1)): 28 nM
- EC50 [2]: 36 nM

Compound: Cc1noc2c1-c1ccc(-c3cnn(C)c3)cc1C(c1ccc(Cl)cc1)=N[C@H]2CC(N)=O [Compound 400, 2-((4S)-6-(4-chlorophenyl)-1-methyl-8-(1-trideuteromethyl-1H-pyrazol-4-yl)-4H-benzo[c]isoxazolo[4,5-e]azepin-4-yl)-^15N-acetamide]
- EC50 [1]: 5 nM
- IC50 (BRD4(BD1)): 18 nM
- EC50 [2]: 8 nM

Compound: Cc1noc(-c2ccc3c(c2)C(c2ccc(Cl)cc2)=N[C@@H](CC(N)=O)c2onc(C)c2-3)n1 [Compound 404, 2-((4S)-6-(4-chlorophenyl)-1-methyl-8-(3-methyl-1,2,4-oxadiazol-5-yl)-4H-benzo[c]isoxazolo[4,5-e]azepin-4-yl)acetamide]
- EC50 ([1]; Homo sapiens): 36 nM
- IC50 (BRD4(BD1)): 270 nM
- EC50 [2]: 206 nM

Compound: Cc1noc2c1-c1ccc(-c3cnn(C)c3)cc1C(c1ccc(Cl)cc1)=N[C@H]2CC(=O)N(C)C [Compound 402]
- EC50 ([1]; Homo sapiens): 7 nM
- IC50 (BRD4(BD1)): 13 nM
- EC50 [2]: 23 nM

Compound: Cc1noc2c1-c1ccc(-c3cnn(C)c3)cc1C(c1ccc(Cl)cc1)=N[C@H]2CC(N)=O [Compound 401, 2-((4S)-6-(4-Chlorophenyl)-1-methyl-8-(1-methyl-1H-pyrazol-4-yl)-4H-benzo[c]isoxazolo[4,5-e]azepin-4-yl)acetamide]
- EC50 ([1]; Homo sapiens): 15 nM
- IC50 (BRD4(BD1)): 14 nM
- tumor volume reduction [3]: Statistically significant reductions in tumor volumes
- GI50 (DLD-1): 480 nM
- GI50 (U2932): 625 nM
- GI50 (HT): 100 nM
- GI50 (SU-DHL-8): 100 nM
- GI50 (OPM2): 10 nM
- GI50 (143B): 230 nM
- GI50 (HT29): 200 nM
- GI50 (SU-DHL-5): 325 nM
- GI50 (WSU-DLCL-2): 45 nM
- GI50 (H526): 10 nM
- GI50 (OCI-LY-19): 60 nM
- GI50 (THP-1): 65 nM
- GI50 (KMS11): 100 nM
- GI50 (ML-2): 60 nM
- GI50 (A549): 460 nM
- GI50 (DB): 150 nM
- GI50 (SU-DHL-10): 100 nM
- GI50 (MOLM-13): 90 nM
- GI50 (ZR-75-1): 300 nM
- GI50 (MV4-11): 15 nM
- GI50 (H23): 210 nM
- GI50 (LP1): 5 nM
- GI50 (DOHH2): 60 nM
- GI50 (KARPAS 422): 20 nM
- GI50 (SU-DHL-6): 60 nM
- GI50 (SU-DHL-4): 150 nM
- GI50 (A2780): 90 nM
- EC50 [2]: 13 nM

Compound: Cc1noc2c1-c1ccc(-c3cnn(C)c3)cc1C(c1ccc(Cl)cc1)=N[C@H]2CC(=O)O [Compound 405]
- EC50 ([1]; Homo sapiens): 420 nM
- IC50 (BRD4(BD1)): 175 nM
- EC50 [2]: 833 nM
